In patent US7906520B2, “Methods for treating pain” (The General Hospital Corporation, priority 2003, dated 2011):

Columns and labels:
[1] = test system: SNI model, nNOS knockout mice; assay: SNI model in nNOS knockout and wild-type mice; assay type: in vivo; settings: mechanical or cold stimuli
Description: (§1) In this figure, closed circles represent nNOS knockout mice with DAHP; open circles, nNOS knock out mice with vehicle; closed triangles, wild type mice with DAHP; and open triangles, wild type mice with vehicle. […] In this figure, closed triangles represent L-NAME administration; open circles, L-NAME+DAHP administration; closed circles, DAHP administration; and open triangles, vehicle administration. L-NAME was administered at 25 mg/kg, i.p., single dose, and DAHP was administered at 120 mg/kg, i.p., single dose. The antinociceptive efficacy of this high L-NAME dose is weaker (about 50%) than that of a moderate dose of DAHP.

[2] = DAHP pharmacokinetics in plasma and CSF; assay type: in vivo, rat; settings: single dose 180 mg/kg i.p.
Description: FIGS. 14A-14C represent a series of graphs showing pharmacokinetic features of DAHP and the pharmacokinetic-pharmacodynamic relationship. […] In addition, concentrations of DAHP in cerebrospinal fluid (CSF) were determined at an early and late time point. In FIG. 14B, plasma concentrations were fitted according to a one-compartment PK model with first order input and first order elimination. PK parameters are presented where Cmax is the maximum concentration, tmax the time of the maximum concentration, k01 is the absorption rate constant, t1/2abs. represents the absorption half-life, k10 is the elimination rate constant, t1/2 el is the elimination half-life, and Cl is the clearance. In FIG. 14C, pooled plasma concentration and effect data of the CFA model were used to assess the PK/PD relationship employing a standard sigmoidal Emax model.

[3] = test system: dorsal horn neurons; assay: TUNEL staining of apoptotic profiles in L4/L5 dorsal horn after SNI; assay type: in vivo; settings: DAHP 180 mg/kg/day i.p., 7 days after SNI
Description: FIG. 25 is a bar graph showing the number of apoptotic cell profiles, using TUNEL staining, observed in the L4/L5 dorsal horn 7 days after SNI surgery of animals treated with either 180 mg/kg/day DAHP or vehicle control. Apoptotic neurons were detected by in situ TUNEL labeling and counted by a blinded observer.

[4] = test system: CCI model of neuropathic pain; assay: Chronic constriction injury (CCI) model of neuropathic pain; assay type: in vivo, rat; settings: 180 mg/kg/d i.p.
Description: FIGS. 9A and 9B are two graphs showing the effect of DAHP on nociceptive behavior in the CCI model of neuropathic pain. […] DAHP treatment (180 mg/kg/d i.p. for 5 days) was started 3 days after surgery and nociceptive behavior was assessed daily before and after drug injection and once every second day after stopping daily drug injections.
(§2) All procedures were performed in accordance with Massachusetts General Hospital animal care regulations. Adult male Sprague Dawley rats (200-300 g) were anesthetized with halothane. For the sciatic nerve transection (axotomy), the left sciatic nerve was exposed at the mid thigh level, ligated with 3/0 silk, and sectioned distally. The wound was sutured in two layers, and the animals were allowed to recover. For SNI the tibial and peroneal branch of the sciatic nerve were ligated and transected whereas the sural nerve was spared. For CCI, the sciatic nerve was loosely ligated with dexon 4/0 (three ligatures) and for the spinal ligation model the L5 spinal segmental nerve was ligated.

[5] = test system: BH4 biosynthesis; assay: Tissue biopterin and neopterin levels after SNI (LC-MS/MS); assay type: in vivo; settings: with DAHP administration
Description: FIG. 30 is a series of bar graphs quantifying the levels of the BH4 metabolites biopterin and neopterin in the DH, DRG, and ScN following SNI surgery with and without DAHP treatment, compared to control.
Using the preferred method, tissue neopterin and biopterin levels were determined with a liquid chromatography tandem mass spectrometry method. After acidic pH oxidation with iodine according to Fukushima and Nixon (Methods Enzymol. 66: 429-436, 1980) tissues were extracted by solid phase extraction employing Oasis MCX extraction cartridges and concentrations of total biopterin, neopterin and the internal standard rhamnopterin were determined by liquid chromatography coupled to tandem mass spectrometry. HPLC analysis was done under gradient conditions using a Nucleosil C8 column. MS/MS analyses were performed on an API 4000 Q TRAP triple quadrupole mass spectrometer with a Turbo Ion Spray source. Precursor-to-product ion transitions of m/z 236 192 for biopterin, m/z 252 192 for neopterin, m/z 265 192 for rhamnopterin were used for the MRM. Concentrations of the calibration standards, quality controls and samples were evaluated by Analyst software 1.4 (Applied Biosystems). Linearity of the calibration curve was proven from 0.1-50 ng/ml. The coefficient of correlation for all measured sequences was at least 0.99. The intra-day and inter-day variability was <10%.

[6] = test system: SNI model of neuropathic pain; assay: Spared nerve injury (SNI) model of neuropathic pain, von Frey and acetone tests; assay type: in vivo
Description: FIGS. 8A-8D represent a series of graphs showing the effect of DAHP on nociceptive behavior in the SNI model of neuropathic pain. Figures on the left show the threshold to mechanical stimuli applied with von Frey hairs (von Frey threshold). Figures on the right show the duration of paw licking, shaking and lifting following acetone application to the paw as a measure for cold allodynia. In FIG. 8A, rats were treated with DAHP (180 mg/kg/d i.p.) for three days starting three days after surgery (early treatment). Nociceptive behavior was assessed daily before and after drug injection. In FIG. 8B, the treatment period was extended to five days (180 mg/kg/d i.p.) starting three days after surgery and pain behavior was assessed daily before and after drug injection and once every second day for an additional week after stopping the daily drug injections. In FIG. 8C, treatment with DAHP (180 mg/kg/d i.p. for 5 days) was started 17 days after surgery i.e. in the chronic phase without any treatment in the early phase. Nociceptive behavior was assessed once daily 3 h after drug injection. In FIG. 8D, animals received a continuous spinal infusion of DAHP (6 mg/kg/d) for 14 days. The infusion was started directly after surgery. Nociceptive behavior was assessed once daily.
FIGS. 16A-16D show the effects of systemic (16A) and intrathecal (16B) treatment with methotrexate (MTX) on the nociceptive behavior in the SNI model of neuropathic pain. […] In FIG. 16A MTX (0.2 mg/kg/d) was injected i.p. once daily starting 5 days after SNI surgery. Nociceptive behavior was assessed once daily three hours after drug injection. In FIG. 16B, MTX was administered as continuous intrathecal infusion (0.1 mg/kg/d for 14 days) starting right after SNI surgery. Nociceptive behavior was assessed once daily. FIGS. 16C and 16D show the body weight gain of animals during systemic (16C) and intrathecal (16D) MTX treatment. Determination of the weight gain was used to assess general well-being and potential toxic effects of MTX.
In this graph, closed triangles represent vehicle, i.p.; open triangles represent DAHP at 90 mg/kg/day, i.p.; open squares represent DAHP at 180 mg/kg/day, i.p.; and open circles represent DAHP at 270 mg/kg/day, i.p.
as §2

[7] = test system: SNI model; assay: SNI model, L-NAME versus DAHP; assay type: in vivo; settings: DAHP 120 mg/kg i.p. single dose vs L-NAME 25 mg/kg i.p.
Description: as §1

[8] = DAHP 6 mg/kg/day continuous intrathecal infusion
[9] = DAHP 180 mg/kg/day i.p., started 3 or 17 days post-surgery, vs vehicle

Compound: Nc1cc(O)nc(N)n1 [DAHP, 2,4-Diamino-6-hydroxypyrimidine]
- anti-nociceptive effects in nNOS knockout vs wild-type mice [1]: do not differ between nNOS knockout mice and wild-type mice
- distribution in cerebrospinal fluid [2]: rapid distribution in the cerebrospinal fluid
- plasma concentration after i.p. injection [2]: rapidly increased
- apoptosis of dorsal horn neurons (TUNEL) [3]: protects dorsal horn neurons from apoptosis
- analgesic effects in CCI model [4]: analgesic effects of DAHP were further confirmed
- biopterin increases after SNI ([5]; DH, DRG, ScN): reversed in the DH and the ScN, but not the DRG
- neopterin increases after SNI ([5]; DRG and ScN): reversed
- cold allodynia [6, 8]: reduced
- mechanical allodynia [6, 8]: reduced
- cold pain (cold allodynia, acetone) [6, 9]: reduction
- mechanical sensitivity (von Frey threshold) [6, 9]: reduction in mechanical sensitivity
- dose-effect relationship, nociceptive response to mechanical or cold stimuli ([6]; DAHP 90, 180, 270 mg/kg/day i.p.): dose-dependent relationship
- antinociceptive effect compared with L-NAME [7]: stronger antinociceptive effect
